# From publication PMC6150378, “Chemical Constituents from the Flower of Hosta plantaginea with Cyclooxygenases Inhibition and Antioxidant Activities and Their Chemotaxonomic Significance” (Molecules : A Journal of Synthetic Chemistry and Natural …, 2017)
# How the values were obtained:
# [1] = Antioxidant assay: DPPH radical-scavenging activity; settings: DPPH method; regression using five concentrations (500, 200, 100, 50, 25 μM); 517 nm, 40 min at 30 °C
# Experimental: DPPH radical-scavenging activity of the sample was measured as previously described with minor modifications. In a 96-well microplate, 150 μL of DPPH solution (200 μM) was added to 50 μL of the test sample in methanol at different concentrations. The OD values of the reaction mixtures was recorded at 517 nm using a Multiskan Go (Thermo Fisher Scientific, Inc., Waltham, MA, USA) for 40 min at 30 °C. The DPPH radical scavenging activity was calculated by the following equation: DPPH scavenging activity % = […], where Asample represents the absorbance of sample and DPPH, Ablank represents the absorbance of sample and CH3OH, Acontrol represents the absorbance of DPPH and CH3OH. […] L-ascorbic acid was used as the positive control in this experiment. All tests were run in triplicate, and values obtained from experiments were averaged.
# ovine COX-1 = molecular target: T1, ovine COX-1 (Ovis aries, UniProt P05979)
# T1 sequence (P05979 25-600): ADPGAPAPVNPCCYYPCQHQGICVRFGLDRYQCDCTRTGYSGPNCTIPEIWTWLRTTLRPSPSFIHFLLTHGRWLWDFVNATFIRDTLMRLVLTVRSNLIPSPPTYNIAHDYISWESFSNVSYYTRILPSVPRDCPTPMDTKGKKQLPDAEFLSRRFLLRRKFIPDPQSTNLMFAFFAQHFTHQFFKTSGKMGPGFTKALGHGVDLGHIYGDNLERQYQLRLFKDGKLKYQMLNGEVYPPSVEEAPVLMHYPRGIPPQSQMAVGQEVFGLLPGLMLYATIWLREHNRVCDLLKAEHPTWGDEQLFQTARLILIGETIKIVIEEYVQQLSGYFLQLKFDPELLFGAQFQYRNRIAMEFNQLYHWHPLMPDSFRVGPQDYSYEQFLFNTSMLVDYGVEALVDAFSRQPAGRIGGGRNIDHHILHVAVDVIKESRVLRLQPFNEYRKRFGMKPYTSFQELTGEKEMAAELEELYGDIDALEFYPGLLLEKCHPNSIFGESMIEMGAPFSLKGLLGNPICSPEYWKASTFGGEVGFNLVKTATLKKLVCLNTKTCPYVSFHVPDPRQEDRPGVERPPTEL
# Excerpt: (§1) 2,2-Di-phenyl-1-picrylhydrazyl (DPPH) (Sigma Corporation, Ronkonkoma, New York, NY, USA), L-cysteine methyl ester and o-tolyl isothiocyanate (Meilun Biotech. Co. Ltd., Dalian, China), D-glucose, and L-glucose (Energy Chemical, Shanghai, China) were used. COX inhibitor screening assay kit was purchased from Cayman Chemical Company (Ann Arbor, MI, USA).
# ovine COX-2 = molecular target: T2, ovine COX-2 (Ovis aries, UniProt P79208)
# T2 sequence (P79208 17-603): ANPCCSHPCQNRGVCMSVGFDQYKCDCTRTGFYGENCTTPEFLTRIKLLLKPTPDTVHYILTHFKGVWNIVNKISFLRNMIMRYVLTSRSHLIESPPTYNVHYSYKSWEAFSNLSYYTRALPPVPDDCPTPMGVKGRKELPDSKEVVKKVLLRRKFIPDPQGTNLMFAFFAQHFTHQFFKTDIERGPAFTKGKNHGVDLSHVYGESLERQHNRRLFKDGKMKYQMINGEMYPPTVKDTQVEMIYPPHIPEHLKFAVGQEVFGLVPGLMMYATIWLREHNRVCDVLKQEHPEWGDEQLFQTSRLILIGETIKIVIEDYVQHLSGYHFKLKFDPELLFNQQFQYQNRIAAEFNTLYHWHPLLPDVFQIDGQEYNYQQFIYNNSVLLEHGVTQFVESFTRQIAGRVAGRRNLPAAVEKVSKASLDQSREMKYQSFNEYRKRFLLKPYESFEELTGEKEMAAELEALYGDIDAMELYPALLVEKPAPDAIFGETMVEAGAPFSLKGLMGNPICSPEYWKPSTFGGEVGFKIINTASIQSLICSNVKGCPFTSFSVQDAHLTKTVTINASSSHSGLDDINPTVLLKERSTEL
# Excerpt: as §1
IC50 [1] [µM],IC50 (ovine COX-1) [µM],IC50 (ovine COX-2) [µM],Structure (SMILES)
83.2 ± 3,21.6 ± 1.2,45.4 ± 3.3,"COc1cc(O[C@@H]2O[C@H](CO)[C@@H](O)[C@H](O)[C@H]2O)cc2c1C(=O)C[C@@H](c1ccc(O)cc1)O2 [Compound 1, hostaflavanone A]"
282 ± 5.2,15.5 ± 0.6,38.2 ± 3.9,"OC[C@H]1O[C@@H](OCCc2ccccc2)[C@H](O)[C@@H](O)[C@@H]1O [Compound 4, phenethyl-O-β-D-glucopyranoside]"
257 ± 13.8,38.4 ± 1.3,31.7 ± 2.9,"OC[C@H]1O[C@@H](OC[C@H]2O[C@@H](OCCc3ccccc3)[C@H](O)[C@@H](O)[C@@H]2O)[C@H](O)[C@@H](O)[C@@H]1O [Compound 5, phenethanol-β-D-gentiobioside]"
275 ± 14.8,41.2 ± 1.5,35.4 ± 1.6,"C[C@@H]1O[C@@H](OC[C@H]2O[C@@H](OCCc3ccccc3)[C@H](O)[C@@H](O)[C@@H]2O)[C@H](O)[C@H](O)[C@H]1O [Compound 6, phenethyl-O-rutinoside]"
33.9 ± 1.1,–,–,"O=C1O[C@H]([C@@H](O)CO)C(O)=C1O [L-ascorbic acid, reference compound]"
